From PMC6719172, “Inhibition of CpLIP2 Lipase Hydrolytic Activity by Four Flavonols (Galangin, Kaempferol, Quercetin, Myricetin) Compared to Orlistat and Their Binding Mechanisms Studied by Quenching of Fluorescence” (Molecules, 2019)
Values after ≈ are worked out from the molar mass of the structure shown. Like-named read-outs stand apart in the source and are kept apart here.

Legend:
[1] = molecular target: T1, CpLIP2 lipase (Candida parapsilosis, UniProt Q8NIN8); test: Inhibition of CpLIP2 hydrolytic activity (ethyl oleate hydrolysis, GC); type: biochemical; settings: for Ki: non-competitive or uncompetitive model
Experimental: The effect of inhibitor concentrations on the hydrolysis reaction rate in standard conditions was assumed to follow either a non-competitive or an uncompetitive model, corresponding to Equation (1):(1) Ki=I/ V0/Vi−1 where V0 and Vi are the initial rates of the reaction without or with inhibitor at concentration I.
Standard CpLIP2 hydrolytic activity measurement. Hydrolysis activities were determined by measuring the initial rates of fatty acid and esters production (µmol·min^−1·mL^−1), using ethyl oleate (C18:1, EE) as substrates. Specific activity is the total activity expressed in µmol·min^−1·mL^−1 in relation to protein concentration (mg·mL^−1). Experiments were conducted as described by. Hydrolysis of ethyl oleate (EO) was performed in aqueous emulsions at 30 °C. This emulsion consisted of 100 µmol·mL^−1 EO emulsified by sonication (Branson Sonifier 250, 20 s, 200 watts, 145 µm amplitude) in an aqueous solution of 20 g·L^−1 poly vinyl alcohol. The reactions of hydrolysis were prepared in glass test tube by adding 100 μL of ethyl oleate emulsion to 800 µL of sodium phosphate buffer 50 mM, pH 6.5; then the solutions were incubated in water bath at 30 °C for 5 min. The reaction was started by the addition of 100 µL of enzyme solution of CpLIP2 with final concentration 3 µg·mL^−1 with activity 2000 U/mL.
The enzyme solution was pre-incubated at 25 °C, with continuous stirring at 350 rpm. Pre-incubation was conducted with 1980 µL CpLIP2 lipase diluted in sodium NaH2PO4/Na2HPO4 phosphate buffer (50 mM, pH 6.5) containing 20 µL absolute EtOH at 2 different times (1 and 30 min). This pre-incubation phase was conducted in closed vials placed during 2 h on a Radleys StarFish Multi-Experiment Workstation. The reaction was conducted for 15 min at 30 °C, and then stopped by adding 950 µL of a mixture of ethanol/sulphuric acid (100:0.8, v/v). After the addition of 50 µL of internal standards (ethanolic solution of pentadecanoic acid and its ethyl and methyl esters, 1 µmol each), lipids were extracted from the mixture with 1 mL of hexane. Samples were then prepared for analyzing esters and free fatty acids by gas chromatography (GC) as follows. Hexane extract (200 µL) was reacted with 25 µL pyridine and 25 µL N-methyl-tri (methylsilyl)-trifluoroacetamide (MSTFA) as silylating agent. Mixtures were incubated in water bath at 50 °C for 20 min, and then samples were ready for analysis. Reaction rates were determined by the analysis of fat composition by capillary gas chromatography after 15 min reaction. It was checked that less than 30% of the total substrate was converted at the end of the 15 min reaction.
A Shimadzu GC 2010 plus gas chromatograph equipped with a flame ionization detector, an automatic sampler (injected volume 0.1 μL) and a split/splitless injector was used for analysis. The capillary column was a DB-5ht (15 m × 0.25 mm, Phenomenex, Le Pecq, France). The helium carrier flow was 1 mL min^−1and the split ratio was 1:50. Temperature conditions were, for reactions with individual substrates: injector 280 °C, detector 290 °C, oven 200–225 °C at 10 °C min^−1 then to 260 °C at 35 °C·min^−1 for ethyl ester (EE) and fatty acid (FA) of C18:1. Calibration curves were realized using emulsions of mixtures of FA and monoesters prepared according to the same protocol, without enzyme and alcohol.
In order to measure the residual lipase activity in the presence of potential inhibitors, the previous method was conducted in the presence and absence of the inhibitors. For each potential inhibitor, the lipase-catalyzed rate of hydrolysis was evaluated after a pre-incubation period between the lipase and the potential inhibitors, which were solubilized in absolute ethanol at 1% of final concentration. The preincubation was performed at 25 °C with continuous stirring at 350 rpm with different concentration of inhibitors (14, 27.5, 55 µM) which represented, respectively 25, 50, 100-fold the final lipase concentration (0.55 µM). […]

[2] = molecular target: T1, CpLIP2 lipase; test: Fluorescence resonance energy transfer between CpLIP2 and flavonols (Förster theory); type: binding; settings: for E (energy transfer efficiency) / J (overlap integral) / R0 (Förster distance) / r (distance between acceptor and donor) / r/R0: 2.5 µM, 308 K, pH 7.0; as to R0 (Förster distance): values in Å; as to r (distance between acceptor and donor): values in Å
From the text: Fluorescence emission spectra of CpLIP2 lipase overlap the UV absorption spectrum of each flavonol studied, that may induce fluorescence resonance energy transfer (FRET) governed by the binding distance r between the protein behaving as energy donor and the flavonol energy acceptor. The binding distance r can be calculated via Förster theory with the following Equations (10) and (11):(10) E=1−F/ F0=R06/ R06+r^6 where E is the energy transfer efficiency, which is the photons fraction absorbed and transferred by the donor to the acceptor, F and F0 are the fluorescence intensities of donor (CpLIP2) in the presence or absence of acceptor (flavonol) at the same concentrations. The parameter r is the distance between acceptor and donor, and R0 is the Förster distance, which is the critical energy transfer distance when 50% of the excitation energy is transferred from the donor to the acceptor. […] The value of R0 ranges from 20–90 Å for biological macromolecules.

[3] = design: method as in PMID 24601218, doi:10.1021/ja00090a032; settings: cited from earlier work
[4] = molecular target: pancreatic lipase (PL); design: method as in PMID 23363068; settings: in vitro assay; cited from earlier work
[5] = molecular target: C. rugosa commercial lipase; design: method as in doi:10.1016/j.molcatb.2006.02.012; settings: cited from earlier work
[6] = estimated after 30 min of pre-incubation
[7] = concentration not stated (14–55 µM tested), up to 30 min pre-incubation
[8] = read-out: inhibition of CpLIP2 activity

T1 sequence (Q8NIN8 entry or part of it): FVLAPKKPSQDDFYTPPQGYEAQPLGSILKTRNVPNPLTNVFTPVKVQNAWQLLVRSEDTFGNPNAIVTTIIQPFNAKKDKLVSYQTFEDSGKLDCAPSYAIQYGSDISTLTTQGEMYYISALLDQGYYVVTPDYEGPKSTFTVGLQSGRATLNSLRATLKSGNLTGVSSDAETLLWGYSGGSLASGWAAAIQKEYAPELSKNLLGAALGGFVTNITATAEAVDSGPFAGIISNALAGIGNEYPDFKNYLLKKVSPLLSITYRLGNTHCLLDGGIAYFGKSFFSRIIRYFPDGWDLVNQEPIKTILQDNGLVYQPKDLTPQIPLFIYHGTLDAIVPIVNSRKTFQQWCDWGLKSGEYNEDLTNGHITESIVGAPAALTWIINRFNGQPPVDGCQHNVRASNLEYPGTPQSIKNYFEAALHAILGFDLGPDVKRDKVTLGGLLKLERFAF

| SMILES | inhibitory effect relative to THL (times lower) [1] | Ki [1, 6] | inhibition of CpLIP2 activity [1, 7] | percentage of transfer efficiency [2] | E (energy transfer efficiency) [2] | J (overlap integral) [2] | R0 (Förster distance) [2] | r (distance between acceptor and donor) [2] | r/R0 [2] | pKa1 [3] | also measured |
| --- | --- | --- | --- | --- | --- | --- | --- | --- | --- | --- | --- |
| O=c1c(O)c(-c2cc(O)c(O)c(O)c2)oc2cc(O)cc(O)c12 [MYR, myricetin] | about 100 times | 60 µM | about 20% | 23% | 0.23 | 15 × 10^14 nm^4·cm^−1·M^−1 | 38.4 Å | 46.7 Å | 1.2 | 6.6 |  |
| O=c1c(O)c(-c2ccc(O)c(O)c2)oc2cc(O)cc(O)c12 [QUE, quercetin] | about 100 times | 80 µM |  | 6% | 0.06 | 12 × 10^14 nm^4·cm^−1·M^−1 | 36.9 Å | 58.7 Å | 1.6 |  | inhibition at 14 µM [1, 8]: 37%; inhibition at 27.5 µM [1, 8]: 39%; inhibition at 55 µM [1, 8]: 35% |
| O=c1c(O)c(-c2ccccc2)oc2cc(O)cc(O)c12 [GAL, galangin] |  | > 150 µM | ≤ 20% | 24% | 0.24 | 0.8 × 10^14 nm^4·cm^−1·M^−1 | 23.6 Å | 28.5 Å | 1.2 |  | IC50 [4]: 48.2 mg/mL (≈ 178 mM); inhibition of CpLIP2 activity ([1]; after 1 min pre-incubation, concentration not given): no inhibition |
| O=c1c(O)c(-c2ccc(O)cc2)oc2cc(O)cc(O)c12 [KAE, kaempferol] |  | 6 µM |  | 12% | 0.12 | 10 × 10^14 nm^4·cm^−1·M^−1 | 36.0 Å | 50.1 Å | 1.4 | 8.2 | inhibition of CpLIP2 activity ([1]; 55 µM (100-fold molar excess, highest concentration), pre-incubation time not stated, 55 µM): 90%; Ki ([1]; estimated after 1 min of pre-incubation): 4 µM; inhibition at 27.5 µM ([1]; read-out: inhibition of CpLIP2 activity, 27.5 µM (50-fold lipase concentration), pre-incubation time not stated): > 80%; inhibition at 55 µM ([1]; read-out: inhibition of CpLIP2 activity, 55 µM (100-fold molar excess, highest concentration), pre-incubation time not stated): 92%; inhibition at 14 µM ([1]; read-out: inhibition of CpLIP2 catalytic activity, 14 µM, within 1 min of pre-incubation): 80%; IC50 [5]: 6300 µM |
